Structures are written as SMILES.

One test deals with T1, human CD38 (Homo sapiens, UniProt P28907).
T1 construct: purchased Bio-Techne GmbH AVI2404
T1 sequence (P28907 1-300): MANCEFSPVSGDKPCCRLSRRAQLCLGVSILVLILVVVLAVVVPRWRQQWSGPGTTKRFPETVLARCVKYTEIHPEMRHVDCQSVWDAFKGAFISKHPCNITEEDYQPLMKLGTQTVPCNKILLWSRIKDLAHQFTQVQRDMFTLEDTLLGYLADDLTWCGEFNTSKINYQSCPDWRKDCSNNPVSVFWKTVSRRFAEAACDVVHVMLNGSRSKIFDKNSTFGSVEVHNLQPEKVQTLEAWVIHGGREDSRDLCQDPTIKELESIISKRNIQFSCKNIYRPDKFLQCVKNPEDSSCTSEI
In words: NAD+ cyclase activity assay with human recombinant CD38 protein (ε-NAD fluorescence). The format is biochemical. Particulars: 1.9 nM human CD38, substrate ε-NAD, 30 min preincubation, fluorescence 300/410 nm. In outline:
(§1)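 Recombinant CD38 (0.6 nM mouse or 1.9 nM human) in 40 mM HEPES/NaOH pH 7.5, 250 mM sucrose, 0.01% Tween was preincubated with compound for 30 min at room temperature, then […] ε-NAD was added. Fluorescence (ex 300/em 410 nm) was read continuously. Slopes over the linear phase were normalised to enzyme and no-enzyme controls and fitted from 12-point, threefold dose-response curves.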

In the next test the target is T2, mouse CD38 (Mus musculus, UniProt P56528).
T2 construct: purchased Bio-Techne GmbH 4947-AC
T2 sequence (P56528 1-304): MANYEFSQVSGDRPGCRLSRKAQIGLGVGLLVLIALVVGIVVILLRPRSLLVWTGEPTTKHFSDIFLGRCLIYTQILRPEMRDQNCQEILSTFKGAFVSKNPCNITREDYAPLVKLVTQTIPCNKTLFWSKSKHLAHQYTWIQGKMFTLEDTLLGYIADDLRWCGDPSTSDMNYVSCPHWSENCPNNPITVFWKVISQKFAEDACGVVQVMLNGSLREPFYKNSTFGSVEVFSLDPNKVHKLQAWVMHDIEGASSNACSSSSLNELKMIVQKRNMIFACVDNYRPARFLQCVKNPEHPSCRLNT
Briefly: NAD+ cyclase activity assay with mouse recombinant CD38 protein (ε-NAD fluorescence). The format is biochemical. Particulars: 0.6 nM mouse CD38, substrate ε-NAD, 30 min preincubation, fluorescence 300/410 nm. The method, boiled down: as §1

Broadly, the IC50 is the concentration that inhibits the measured activity by half. For the compound `O=C(N[C@H]1CC[C@H](N2CC(C(F)(F)F)C2)CC1)c1ccc2c(c1)-c1cncn1CCO2` [Compound 107A, N-((1r,4r)-4-(3-(Trifluoromethyl)azetidin-1-yl)cyclohexyl)-5,6-dihydrobenzo[f]imidazo[1,5-d][1,4]oxazepine-10-carboxamide], the IC50 on human CD38 fell in the range of 30 to 100 nM; at mouse CD38, 1 to 10 nM.
In the case of `O=C(N[C@@H]1CCC(F)(F)C1)c1cc(F)c2c(c1)-c1cncn1CCO2` [Compound 108A, (R)—N-(3,3-Difluorocyclopentyl)-8-fluoro-5,6-dihydrobenzo[f]imidazo[1,5-d][1,4]oxazepine-10-carboxamide], the figures for the IC50 on human CD38 and on mouse CD38 were under 30 nM and under 1 nM, respectively.
On to `O=C(Nc1cnc(OCC(F)(F)F)nc1)c1ccc2c(c1)-c1cncn1CCO2` [Compound 109A, N-(2-(2,2,2-Trifluoroethoxy)pyrimidin-5-yl)-5,6-dihydrobenzo[f]imidazo[1,5-d][1,4]oxazepine-10-carboxamide], for which the IC50 at human CD38 is under 30 nM; on mouse CD38 it was 1 to 10 nM.
Regarding `O=C(N[C@H]1CC[C@H](NCCC(F)(F)F)CC1)c1ccc2c(c1)-c1cncn1CCO2` [Compound 110A, N-((1r,4r)-4-((3,3,3-Trifluoropropyl)amino)cyclohexyl)-5,6-dihydrobenzo[f]imidazo[1,5-d][1,4]oxazepine-10-carboxamide], the IC50 fell in the range of 30 to 100 nM on human CD38 and 1 to 10 nM on mouse CD38.
As for `O=C(N[C@H]1CC[C@@H](NCCC(F)(F)F)CC1)c1ccc2c(c1)-c1cncn1CCO2` [Compound 111A, N-((1s,4s)-4-((3,3,3-Trifluoropropyl)amino)cyclohexyl)-5,6-dihydrobenzo[f]imidazo[1,5-d][1,4]oxazepine-10-carboxamide], the figures for the IC50 on human CD38 and at mouse CD38 were 100 to 1000 nM and over 100 nM, respectively.
Regarding `O=C(N[C@@H]1CCC(F)(F)C1)c1cc(Cl)c2c(c1)-c1cncn1CCO2` [Compound 112A, (R)-8-Chloro-N-(3,3-difluorocyclopentyl)-5,6-dihydrobenzo[f]imidazo[1,5-d][1,4]oxazepine-10-carboxamide], the IC50 at human CD38 was under 30 nM; at mouse CD38, under 1 nM.
With `O=C(N[C@H]1CC[C@H](N2CC(C(F)F)C2)CC1)c1ccc2c(c1)-c1cncn1CCO2` [Compound 113A, N-((1r,4r)-4-(3-(Difluoromethyl)azetidin-1-yl)cyclohexyl)-5,6-dihydrobenzo[f]imidazo[1,5-d][1,4]oxazepine-10-carboxamide], the IC50 on human CD38 was under 30 nM; on mouse CD38, 1 to 10 nM.
Turning to `CC(C)(O)[C@H]1CC[C@H](NC(=O)c2cc(F)c3c(c2)-c2cncn2CCO3)CC1` [Compound 114A, 8-Fluoro-N-((1r,4r)-4-(2-hydroxypropan-2-yl)cyclohexyl)-5,6-dihydrobenzo[f]imidazo[1,5-d][1,4]oxazepine-10-carboxamide], the figures for the IC50 at human CD38 and at mouse CD38 were under 30 nM and under 1 nM, respectively.
In the case of `O=C(N[C@H]1CC[C@H](NCC(F)(F)F)CC1)c1cc(F)c2c(c1)-c1cncn1CCO2` [Compound 115A, 8-Fluoro-N-((1r,4r)-4-((2,2,2-trifluoroethyl)amino)cyclohexyl)-5,6-dihydrobenzo[f]imidazo[1,5-d][1,4]oxazepine-10-carboxamide], the IC50 is under 30 nM on human CD38 and under 1 nM on mouse CD38.
In the case of `O=C(N[C@@H]1CCCC(F)(F)C1)c1ccc2c(c1)-c1cncn1CCO2` [Compound 116A, (R)—N-(3,3-Difluorocyclohexyl)-5,6-dihydrobenzo[f]imidazo[1,5-d][1,4]oxazepine-10-carboxamide], the figures for the IC50 on human CD38 and at mouse CD38 were under 30 nM and under 1 nM, respectively.
Turning to `O=C(N[C@H]1CCCC(F)(F)C1)c1ccc2c(c1)-c1cncn1CCO2` [Compound 117A, (S)—N-(3,3-Difluorocyclohexyl)-5,6-dihydrobenzo[f]imidazo[1,5-d][1,4]oxazepine-10-carboxamide], the IC50 on human CD38 lay in the range of 30 to 100 nM; on mouse CD38, 1 to 10 nM.
As to `O=C(N[C@H]1CC[C@@H](OCC2(C(F)(F)F)CC2)CC1)c1ccc2c(c1)-c1cncn1CCO2` [Compound 118A, N-((1s,4s)-4-((1-(Trifluoromethyl)cyclopropyl)methoxy)cyclohexyl)-5,6-dihydrobenzo[f]imidazo[1,5-d][1,4]oxazepine-10-carboxamide], the values for the IC50 at human CD38 and at mouse CD38 were over 1000 nM and over 100 nM, respectively.
The matching figures for `O=C(NC1CCC(CC(F)(F)F)CC1)c1ccc2c(c1)-c1cncn1CCO2` (stereo not drawn) [Compound 119A, N-(4-(2,2,2-Trifluoroethyl)cyclohexyl)-5,6-dihydrobenzo[f]imidazo[1,5-d][1,4]oxazepine-10-carboxamide]: under 30 nM and 1 to 10 nM.
On the same counts, the results for `CC(C)(CO[C@H]1CC[C@H](NC(=O)c2ccc3c(c2)-c2cncn2CCO3)CC1)C(F)(F)F` [Compound 120A, N-((1r,4r)-4-(3,3,3-Trifluoro-2,2-dimethylpropoxy)cyclohexyl)-5,6-dihydrobenzo[f]imidazo[1,5-d][1,4]oxazepine-10-carboxamide] are under 30 nM and 1 to 10 nM.
As to `CC(C)(CO[C@H]1CC[C@@H](NC(=O)c2ccc3c(c2)-c2cncn2CCO3)CC1)C(F)(F)F` [Compound 121A, N-((1s,4s)-4-(3,3,3-Trifluoro-2,2-dimethylpropoxy)cyclohexyl)-5,6-dihydrobenzo[f]imidazo[1,5-d][1,4]oxazepine-10-carboxamide], the half-inhibitory concentration (IC50) is over 1000 nM at human CD38 and over 100 nM at mouse CD38.
For `O=C(N[C@H]1CC[C@H](OCC(F)(F)F)CC1)c1ccc2c(c1)-c1cncn1CCO2` [Compound 122A, N-((1r,4r)-4-(2,2,2-Trifluoroethoxy)cyclohexyl)-5,6-dihydrobenzo[f]imidazo[1,5-d][1,4]oxazepine-10-carboxamide], the values for the IC50 on human CD38 and on mouse CD38 were under 30 nM and 1 to 10 nM, respectively.
Turning to `O=C(N[C@H]1CC[C@@H](OCC(F)(F)F)CC1)c1ccc2c(c1)-c1cncn1CCO2` [Compound 123A, N-((1s,4s)-4-(2,2,2-Trifluoroethoxy)cyclohexyl)-5,6-dihydrobenzo[f]imidazo[1,5-d][1,4]oxazepine-10-carboxamide], the half-inhibitory concentration (IC50) on human CD38 lay within 100 to 1000 nM; on mouse CD38, 10 to 100 nM.
In the case of `O=C(Nc1cnc(N2CC(C(F)F)C2)nc1)c1ccc2c(c1)-c1cncn1CCO2` [Compound 124A, N-(2-(3-(Difluoromethyl)azetidin-1-yl)pyrimidin-5-yl)-5,6-dihydrobenzo[f]imidazo[1,5-d][1,4]oxazepine-10-carboxamide], the IC50 on human CD38 was under 30 nM; on mouse CD38, 10 to 100 nM.
In the case of `CCC1CCC(NC(=O)c2ccc3c(c2)-c2cncn2CCO3)CC1` (stereo not drawn) [Compound 125A, N-(4-Ethylcyclohexyl)-5,6-dihydrobenzo[f]imidazo[1,5-d][1,4]oxazepine-10-carboxamide], the IC50 on human CD38 is under 30 nM; on mouse CD38 it was 1 to 10 nM.
As for `CC(O)C1CCC(NC(=O)c2ccc3c(c2)-c2cncn2CCO3)CC1` (stereo not drawn) [Compound 126A, N-(4-(1-Hydroxyethyl)cyclohexyl)-5,6-dihydrobenzo[f]imidazo[1,5-d][1,4]oxazepine-10-carboxamide], the results for the concentration for half-maximal inhibition (IC50) at human CD38 and on mouse CD38 were 30 to 100 nM and 1 to 10 nM, respectively.
Turning to `COC(C)(C)CO[C@H]1CC[C@H](NC(=O)c2ccc3c(c2)-c2cncn2CCO3)CC1` [Compound 127A, N-((1r,4r)-4-(2-Methoxy-2-methylpropoxy)cyclohexyl)-5,6-dihydrobenzo[f]imidazo[1,5-d][1,4]oxazepine-10-carboxamide], the IC50 was under 30 nM on human CD38 and 1 to 10 nM at mouse CD38.
In the case of `COC(C)(C)CO[C@H]1CC[C@@H](NC(=O)c2ccc3c(c2)-c2cncn2CCO3)CC1` [Compound 128A, N-((1s,4s)-4-(2-Methoxy-2-methylpropoxy)cyclohexyl)-5,6-dihydrobenzo[f]imidazo[1,5-d][1,4]oxazepine-10-carboxamide], the IC50 was 100 to 1000 nM on human CD38 and 10 to 100 nM at mouse CD38.
For the compound `O=C(Nc1cnc2c(c1)OCCO2)c1cc(Cl)c2c(c1)-c1cncn1CCO2` [Compound 129A, 8-Chloro-N-(2,3-dihydro-[1,4]dioxino[2,3-b]pyridin-7-yl)-5,6-dihydrobenzo[f]imidazo[1,5-d][1,4]oxazepine-10-carboxamide], the IC50 on human CD38 was under 30 nM; on mouse CD38 it was 1 to 10 nM.
Regarding `O=C(N[C@@H]1CCCOC1)c1cc(F)c2c(c1)-c1cncn1CCO2` [Compound 130A, (R)-8-Fluoro-N-(tetrahydro-2H-pyran-3-yl)-5,6-dihydrobenzo[f]imidazo[1,5-d][1,4]oxazepine-10-carboxamide], the 50% inhibitory concentration (IC50) is 30 to 100 nM at human CD38 and 1 to 10 nM at mouse CD38.

The values above are taken from patent US20260138990A1, “TRICYCLIC FUSED IMIDAZOLE COMPOUNDS AS CD38 MODULATORS AND USES THEREOF” (AEOVIAN PHARMACEUTICALS, INC., priority 2023, published 2026).
